Source: US20240317721A1, “PYRAZOLYL DERIVATIVES AS INHIBITORS OF THE KRAS MUTANT PROTEIN” (NOVARTIS AG, priority 2021, published 2024)

Biological target: KRasG12C (M1-K169, biotinylated on the N-terminus) (Homo sapiens (Human), UniProt P01116, G12C)
Experiment: Covalent competition assay: scintillation proximity assay (SPA) quantifying covalent modification of KRASG12C
Type: binding
Conditions: competition with radiolabeled covalent probe (Compound B/Compound A), 2 hours incubation, 10 nM KRasG12C
Method in brief: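 Test compounds compete with a radiolabeled covalent probe for modification of N-terminally biotinylated KRasG12C(M1-K169):GDP, final 10 nM protein, 25 nM radio-ligand, 475 nM unlabelled ligand, 2 h with agitation in 20 mM Tris-HCl pH 7.5, 150 mM NaCl, 0.1 mM MgCl2, 0.01% Tween-20.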

Row | SMILES | IC50
1 | C=CC(=O)N1CC2(CC(n3nc(N4CCN(C(C)(C)C(=O)OC)CC45CCC5)c(-c4c(Cl)c(C)cc5[nH]ncc45)c3C)C2)C1 (single isomer, unassigned) [Example 180a, methyl 2-(5-(1-(2-acryloyl-2-azaspiro[3.3]heptan-6-yl)-4-(5-chloro-6-methyl-1H-indazol-4-yl)-5-methyl-1H-pyrazol-3-yl)-5,8-diazaspiro[3.5]nonan-8-yl)-2-methylpropanoate] | > 5 µM
2 | C=CC(=O)N1CC2(CC(n3nc(N4CCN(C(C)(C)C(=O)OC)CC45CCC5)c(-c4c(Cl)c(C)cc5[nH]ncc45)c3C)C2)C1 (single isomer, unassigned) [Example 180b, methyl 2-(5-(1-(2-acryloyl-2-azaspiro[3.3]heptan-6-yl)-4-(5-chloro-6-methyl-1H-indazol-4-yl)-5-methyl-1H-pyrazol-3-yl)-5,8-diazaspiro[3.5]nonan-8-yl)-2-methylpropanoate] | 0.017 µM
3 | C=CC(=O)N1CC2(CC(n3nc(N4CCN(C[C@@H]5COCCO5)C[C@]4(C)COC)c(-c4c(Cl)c(C)cc5[nH]ncc45)c3C)C2)C1 (single isomer, unassigned) [Example 181a] | 0.929 µM
4 | C=CC(=O)N1CC2(CC(n3nc(N4CCN(C[C@@H]5COCCO5)C[C@]4(C)COC)c(-c4c(Cl)c(C)cc5[nH]ncc45)c3C)C2)C1 (single isomer, unassigned) [Example 181b] | 0.008 µM
5 | C=CC(=O)N1CC2(CC(n3nc(N4CCN(C[C@@H]5COCCO5)C[C@]4(C)COC)c(-c4c(Cl)c(Cl)cc5[nH]ncc45)c3C)C2)C1 (single isomer, unassigned) [Example 182a] | 1.4 µM
6 | C=CC(=O)N1CC2(CC(n3nc(N4CCN(C[C@@H]5COCCO5)C[C@]4(C)COC)c(-c4c(Cl)c(Cl)cc5[nH]ncc45)c3C)C2)C1 (single isomer, unassigned) [Example 182b] | 0.008 µM
7 | C=CC(=O)N1CC2(CC(n3nc(N4CCN(CCOC(F)F)CC45CCC5)c(-c4c(Cl)c(C)cc5[nH]ncc45)c3C)C2)C1 (single isomer, unassigned) [Example 183a, 1-(6-(4-(5-chloro-6-methyl-1H-indazol-4-yl)-3-(8-(2-(difluoromethoxy)ethyl)-5,8-diazaspiro[3.5]nonan-5-yl)-5-methyl-1H-pyrazol-1-yl)-2-azaspiro[3.3]heptan-2-yl)prop-2-en-1-one] | > 5 µM
8 | C=CC(=O)N1CC2(CC(n3nc(N4CCN(CCOC(F)F)CC45CCC5)c(-c4c(Cl)c(C)cc5[nH]ncc45)c3C)C2)C1 (single isomer, unassigned) [Example 183b, 1-(6-(4-(5-chloro-6-methyl-1H-indazol-4-yl)-3-(8-(2-(difluoromethoxy)ethyl)-5,8-diazaspiro[3.5]nonan-5-yl)-5-methyl-1H-pyrazol-1-yl)-2-azaspiro[3.3]heptan-2-yl)prop-2-en-1-one] | 0.027 µM
9 | C=C(F)C(=O)N1CC2(CC(n3nc(N4CCN(C[C@@H]5COCCO5)C[C@]4(C)COC)c(-c4c(Cl)c(Cl)cc5[nH]ncc45)c3C)C2)C1 (single isomer, unassigned) [Example 184a] | > 5 µM
10 | C=C(F)C(=O)N1CC2(CC(n3nc(N4CCN(C[C@@H]5COCCO5)C[C@]4(C)COC)c(-c4c(Cl)c(Cl)cc5[nH]ncc45)c3C)C2)C1 (single isomer, unassigned) [Example 184b] | 0.061 µM
11 | C=CC(=O)N1CC2(CC(n3nc(N4CCN(CC5COCCOC5)CC45CCC5)c(-c4c(Cl)c(C)cc5[nH]ncc45)c3C)C2)C1 (single isomer, unassigned) [Example 185a, 1-(6-(3-(8-((1,4-dioxepan-6-yl)methyl)-5,8-diazaspiro[3.5]nonan-5-yl)-4-(5-chloro-6-methyl-1H-indazol-4-yl)-5-methyl-1H-pyrazol-1-yl)-2-azaspiro[3.3]heptan-2-yl)prop-2-en-1-one] | 4.1 µM
12 | C=CC(=O)N1CC2(CC(n3nc(N4CCN(CC5COCCOC5)CC45CCC5)c(-c4c(Cl)c(C)cc5[nH]ncc45)c3C)C2)C1 (single isomer, unassigned) [Example 185b, 1-(6-(3-(8-((1,4-dioxepan-6-yl)methyl)-5,8-diazaspiro[3.5]nonan-5-yl)-4-(5-chloro-6-methyl-1H-indazol-4-yl)-5-methyl-1H-pyrazol-1-yl)-2-azaspiro[3.3]heptan-2-yl)prop-2-en-1-one] | 0.015 µM
13 | C=CC(=O)N1CC2(CC(n3nc(N4CCN(CC5COCCOC5)C[C@]4(C)CC)c(-c4c(Cl)c(C)cc5[nH]ncc45)c3C)C2)C1 (single isomer, unassigned) [Example 186a] | 1.5 µM
14 | C=CC(=O)N1CC2(CC(n3nc(N4CCN(CC5COCCOC5)C[C@]4(C)CC)c(-c4c(Cl)c(C)cc5[nH]ncc45)c3C)C2)C1 (single isomer, unassigned) [Example 186b] | 0.007 µM
15 | C=CC(=O)N1CC2(CC(n3nc(N4CCN(C(COC)COC)C[C@]4(C)CC)c(-c4c(Cl)c(C)cc5[nH]ncc45)c3C)C2)C1 (single isomer, unassigned) [Example 187a] | 4.2 µM
16 | C=CC(=O)N1CC2(CC(n3nc(N4CCN(C(COC)COC)C[C@]4(C)CC)c(-c4c(Cl)c(C)cc5[nH]ncc45)c3C)C2)C1 (single isomer, unassigned) [Example 187b] | 0.005 µM
17 | C=CC(=O)N1CC2(CC(n3nc(N4CCN(Cc5cn(C)nn5)C[C@]4(C)CC)c(-c4c(Cl)c(C)cc5[nH]ncc45)c3C)C2)C1 (single isomer, unassigned) [Example 188a] | 0.387 µM
18 | C=CC(=O)N1CC2(CC(n3nc(N4CCN(Cc5cn(C)nn5)C[C@]4(C)CC)c(-c4c(Cl)c(C)cc5[nH]ncc45)c3C)C2)C1 (single isomer, unassigned) [Example 188b] | 0.006 µM
19 | C=CC(=O)N1CC2(CC(n3nc(N4CCN(C[C@H]5COCCO5)CC45CCC5)c(-c4c(Cl)c(C)cc5[nH]ncc45)c3C)C2)C1 (single isomer, unassigned) [Example 189a] | > 5 µM
20 | C=CC(=O)N1CC2(CC(n3nc(N4CCN(C[C@H]5COCCO5)CC45CCC5)c(-c4c(Cl)c(C)cc5[nH]ncc45)c3C)C2)C1 (single isomer, unassigned) [Example 189b] | 0.015 µM
21 | C=CC(=O)N1CC2(CC(n3nc(N4CCN(C(C)(C)CO)CC45CCC5)c(-c4c(Cl)c(C)cc5[nH]ncc45)c3C)C2)C1 (single isomer, unassigned) [Example 190a, 1-(6-(4-(5-Chloro-6-methyl-1H-indazol-4-yl)-3-(8-(1-hydroxy-2-methylpropan-2-yl)-5,8-diazaspiro[3.5]nonan-5-yl)-5-methyl-1H-pyrazol-1-yl)-2-azaspiro[3.3]heptan-2-yl)prop-2-en-1-one] | 4.5 µM
22 | C=CC(=O)N1CC2(CC(n3nc(N4CCN(C(C)(C)CO)CC45CCC5)c(-c4c(Cl)c(C)cc5[nH]ncc45)c3C)C2)C1 (single isomer, unassigned) [Example 190b, 1-(6-(4-(5-Chloro-6-methyl-1H-indazol-4-yl)-3-(8-(1-hydroxy-2-methylpropan-2-yl)-5,8-diazaspiro[3.5]nonan-5-yl)-5-methyl-1H-pyrazol-1-yl)-2-azaspiro[3.3]heptan-2-yl)prop-2-en-1-one] | 0.111 µM
23 | C=CC(=O)N1CC2(CC(n3nc(N4CCN(C5(C)COC5)CC45CCC5)c(-c4c(Cl)c(C)cc5[nH]ncc45)c3C)C2)C1 (single isomer, unassigned) [Example 191a, 1-(6-(4-(5-Chloro-6-methyl-1H-indazol-4-yl)-5-methyl-3-(8-(3-methyloxetan-3-yl)-5,8-diazaspiro[3.5]nonan-5-yl)-1H-pyrazol-1-yl)-2-azaspiro[3.3]heptan-2-yl)prop-2-en-1-one] | > 5 µM
24 | C=CC(=O)N1CC2(CC(n3nc(N4CCN(C5(C)COC5)CC45CCC5)c(-c4c(Cl)c(C)cc5[nH]ncc45)c3C)C2)C1 (single isomer, unassigned) [Example 191b, 1-(6-(4-(5-Chloro-6-methyl-1H-indazol-4-yl)-5-methyl-3-(8-(3-methyloxetan-3-yl)-5,8-diazaspiro[3.5]nonan-5-yl)-1H-pyrazol-1-yl)-2-azaspiro[3.3]heptan-2-yl)prop-2-en-1-one] | 0.014 µM
25 | C=CC(=O)N1CC2(CC(n3nc(N4CCN(c5ccnnc5)C[C@]4(C)CC)c(-c4c(Cl)c(C)cc5[nH]ncc45)c3C)C2)C1 (single isomer, unassigned) [Example 192a] | > 5 µM
26 | C=CC(=O)N1CC2(CC(n3nc(N4CCN(c5ccnnc5)C[C@]4(C)CC)c(-c4c(Cl)c(C)cc5[nH]ncc45)c3C)C2)C1 (single isomer, unassigned) [Example 192b] | 0.008 µM
27 | C=CC(=O)N1CC2(CC(n3nc(N4CCN(c5cnn(C)c5)CC4(C)C)c(-c4c(Cl)c(C)cc5[nH]ncc45)c3C)C2)C1 (single isomer, unassigned) [Example 193a, 1-(6-(4-(5-Chloro-6-methyl-1H-indazol-4-yl)-3-(2,2-dimethyl-4-(1-methyl-1H-pyrazol-4-yl)piperazin-1-yl)-5-methyl-1H-pyrazol-1-yl)-2-azaspiro[3.3]heptan-2-yl)prop-2-en-1-one] | 20.8 µM
28 | C=CC(=O)N1CC2(CC(n3nc(N4CCN(c5cnn(C)c5)CC4(C)C)c(-c4c(Cl)c(C)cc5[nH]ncc45)c3C)C2)C1 (single isomer, unassigned) [Example 193b, 1-(6-(4-(5-Chloro-6-methyl-1H-indazol-4-yl)-3-(2,2-dimethyl-4-(1-methyl-1H-pyrazol-4-yl)piperazin-1-yl)-5-methyl-1H-pyrazol-1-yl)-2-azaspiro[3.3]heptan-2-yl)prop-2-en-1-one] | 0.028 µM
29 | C=CC(=O)N1CC2(CC(n3nc(N4CCN(c5nccn5C)C[C@]4(C)CC)c(-c4c(Cl)c(C)cc5[nH]ncc45)c3C)C2)C1 (single isomer, unassigned) [Example 194a] | 0.019 µM
30 | C=CC(=O)N1CC2(CC(n3nc(N4CCN(c5nccn5C)C[C@]4(C)CC)c(-c4c(Cl)c(C)cc5[nH]ncc45)c3C)C2)C1 (single isomer, unassigned) [Example 194b] | 1.3 µM
